Like-named read-outs stand apart in the source and are kept apart here.
How the values were obtained:
[1] = design: species or system patients; conditions: in vivo
Experimental: This is a randomized phase II study designed to detect the advantage of adding rabeprazole to mCAP as palliative treatment for patients with metastatic GI cancer, as previously described. Eligible patients were randomly assigned 1:1 to capecitabine, 1500 mg/daily, continuously with or without rabeprazole 1.5 mg/kg bid, three days a week. The randomization was computer generated by a statistician not involved in data collection, who was called by phone at the time of assignment. The protocol was not interrupted until progression of disease, unacceptable toxicity or death occurrence. This study was designed with the primary endpoint of 3-months progression-free survival (PFS) rate. […] Safety was evaluated by considering overall incidence and severity of adverse events (AEs) as well as the seriousness and drug-relatedness of each event (CTCAE v.4.03). […] Plasma concentrations of capecitabine and its metabolites, 5′-deoxy-5′-fluorouridine (5′-DFUR) and 5- fluorouracil (5-FU), were evaluated in order to assess the potential interaction between capecitabine and rabeprazole. […] Plasma samples, calibration standard samples and quality-control (QC) samples were analyzed using a high-performance liquid chromatography (HPLC) tandem mass spectrometry (LC/MS-MS) analytical method. […]

[2] = system: tumor pH; design: method as in PMID 19876915; conditions: in vivo experiments; tumor pH shifts toward neutrality after treatment; cited from earlier work
[3] = system: early stage colorectal cancer; design: method as in PMID 26803708; conditions: cited from earlier work
[4] = system: metastatic gastrointestinal (GI) cancer; test: Randomized phase II trial: efficacy (3-months PFS, PFS, clinical benefit, OS; RECIST 1.1); type: in vivo, patients
Text: In addition, patients had to be 18 years of age or older, to have adequate bone-marrow, liver, and renal function and to have an Eastern Cooperative Oncology Group (ECOG) performance status ≤2. Meanwhile, the presence of one of the following criteria excluded patients’ participation to the study protocol: GI tumors that can be treated with standard treatments, cardiovascular or CNS disease, previously untreated CNS metastases, pregnant or breast-feeding patients, organ dysfunctions that usually hinder the use of cytotoxic drugs, and/or substance abuse and any other psychological condition that may interfere with the evaluation of study results. All patients were randomized and treated at the Oncology Unit of Sant’Andrea University Hospital, Rome. Every cancer patient is commonly managed at our Institution by a multidisciplinary team, who provides for the starting and the following clinical evaluations.
This is a randomized phase II study designed to detect the advantage of adding rabeprazole to mCAP as palliative treatment for patients with metastatic GI cancer, as previously described. Eligible patients were randomly assigned 1:1 to capecitabine, 1500 mg/daily, continuously with or without rabeprazole 1.5 mg/kg bid, three days a week. The randomization was computer generated by a statistician not involved in data collection, who was called by phone at the time of assignment. The protocol was not interrupted until progression of disease, unacceptable toxicity or death occurrence. This study was designed with the primary endpoint of 3-months progression-free survival (PFS) rate. PFS was defined as the length of time from the first dose of study drug to the date of the first documented disease progression according to the Response Evaluation Criteria in Solid Tumors (RECIST), version 1.1, or death for any reason, with censoring at the date of the last contact for alive patients. Secondary endpoints included the evaluation of clinical benefit (CB), which reflects the proportion of patients with complete response (CR), partial response (PR) and stable disease (SD) and overall survival (OS). The crossover between treatment groups was not allowed before the final analysis of the primary end point. Safety was evaluated by considering overall incidence and severity of adverse events (AEs) as well as the seriousness and drug-relatedness of each event (CTCAE v.4.03). AEs with an onset during treatment, or within 28 days after the last dose of the study drug, were considered as having occurred during treatment. We grouped anemia, neutropenia, and thrombocytopenia in hematological toxicity; diarrhea, nausea, and vomiting in gastrointestinal toxicity. In the two protocol arms, plasma concentrations of capecitabine and its metabolites were determined at 2 h from the assumption of two tablet of capecitabine (1000 mg), corresponding to the tmax of the drug. Plasma concentrations of capecitabine and its metabolites, 5′-deoxy-5′-fluorouridine (5′-DFUR) and 5- fluorouracil (5-FU), were evaluated in order to assess the potential interaction between capecitabine and rabeprazole. Blood samples (7 mL) were collected in vacutainers containing ethylenediaminetetraacetic acid (EDTA) as anticoagulant, then centrifuged and the plasma samples were stored at −20 °C until analysis. […] Plasma samples, calibration standard samples and quality-control (QC) samples were analyzed using a high-performance liquid chromatography (HPLC) tandem mass spectrometry (LC/MS-MS) analytical method. […]

[5] = system: patients with metastatic GI cancer; test: Randomized phase II trial: safety, adverse events (CTCAE v.4.03); conditions: in vivo
Experimental: This is a randomized phase II study designed to detect the advantage of adding rabeprazole to mCAP as palliative treatment for patients with metastatic GI cancer, as previously described. Eligible patients were randomly assigned 1:1 to capecitabine, 1500 mg/daily, continuously with or without rabeprazole 1.5 mg/kg bid, three days a week. The randomization was computer generated by a statistician not involved in data collection, who was called by phone at the time of assignment. The protocol was not interrupted until progression of disease, unacceptable toxicity or death occurrence. This study was designed with the primary endpoint of 3-months progression-free survival (PFS) rate. PFS was defined as the length of time from the first dose of study drug to the date of the first documented disease progression according to the Response Evaluation Criteria in Solid Tumors (RECIST), version 1.1, or death for any reason, with censoring at the date of the last contact for alive patients. Secondary endpoints included the evaluation of clinical benefit (CB), which reflects the proportion of patients with complete response (CR), partial response (PR) and stable disease (SD) and overall survival (OS). The crossover between treatment groups was not allowed before the final analysis of the primary end point. Safety was evaluated by considering overall incidence and severity of adverse events (AEs) as well as the seriousness and drug-relatedness of each event (CTCAE v.4.03). AEs with an onset during treatment, or within 28 days after the last dose of the study drug, were considered as having occurred during treatment. We grouped anemia, neutropenia, and thrombocytopenia in hematological toxicity; diarrhea, nausea, and vomiting in gastrointestinal toxicity. In the two protocol arms, plasma concentrations of capecitabine and its metabolites were determined at 2 h from the assumption of two tablet of capecitabine (1000 mg), corresponding to the tmax of the drug. Plasma concentrations of capecitabine and its metabolites, 5′-deoxy-5′-fluorouridine (5′-DFUR) and 5- fluorouracil (5-FU), were evaluated in order to assess the potential interaction between capecitabine and rabeprazole. Blood samples (7 mL) were collected in vacutainers containing ethylenediaminetetraacetic acid (EDTA) as anticoagulant, then centrifuged and the plasma samples were stored at −20 °C until analysis. Plasma samples were collected at the start of the study, after 4 and 8 weeks of treatment. Plasma samples, calibration standard samples and quality-control (QC) samples were analyzed using a high-performance liquid chromatography (HPLC) tandem mass spectrometry (LC/MS-MS) analytical method. Plasma concentrations were reported in µg/mL (mean values and standard deviation (SD)).
The study was designed to have 90% power to detect a hazard ratio for the 3-months PFS of 0.60 (a 40% reduction in risk) in the mCAP-rabeprazole group as compared with the mCAP group, with a one-sided type I error rate of 0.05. Given the treatment assignment ratio of 1:1, we calculated that 66 patients had to be enrolled in the study, and at least 60 events (progression disease) would have been required for the primary analysis. For PFS and OS, the stratified log-rank test was used independently at the 2-sided, 0.05 level of significance, and Kaplan–Meier estimates performed for the graphic representation of both findings. An exact logistic regression model was used to test for a difference in CB between treatments, with the model adjusted by the same factors used to stratify the primary analysis of PFS. Adverse events and laboratory abnormalities were summarized for all patients who received at least one dose of study drug. The χ^2–test and t-test for unpaired data were applied to compare frequencies and means, respectively. SPSS statistical software, Version 24 (SPSS Inc. Chicago, IL, USA) was used.

SMILES | plasma values in the pre-dose analysis [1] | time for tumor pH to return to acidity after treatment discontinuation [2] [h] | Five-year recurrence-free survival ([3]; adjuvant capecitabine with concurrent PPIs consumption) [%] | Five-year recurrence-free survival ([3]; adjuvant capecitabine without concurrent PPIs consumption) [%] | HR for five-year recurrence-free survival ([3]; with vs. without concurrent PPIs, p = 0.03) | median OS ([4]; Kaplan–Meier) | median PFS ([4]; Kaplan–Meier) [months] | 3-year OS rate ([4]; human, in vivo) [%] | patients who reported a clinical benefit (CB: CR+PR+SD) ([4]; human, in vivo) [%] | patients who experienced a progression of the disease at the 3-months evaluation (primary end-point) ([4]; intention-to-treat, mCAP 1500 mg/daily with or without rabeprazole 1.5 mg/kg bid three days a week) [%] | Gastrointestinal G1, patients ([5]; human) [%] | Gastrointestinal G2, patients ([5]; human) [%] | Hand-foot syndrome G1, patients ([5]; human) [%] | Hand-foot syndrome G2, patients ([5]; human) [%] | Hematological toxicity G1, patients ([5]; human) [%] | Hematological toxicity G2, patients ([5]; human) [%] | Nausea ([5]; human) [n.] | Neutropenia ([5]; human) [n.] | adverse events of any grade, patients ([5]; human) [%] | severe adverse events [5]
O=c1[nH]cc(F)c(=O)[nH]1 [5-FU, 5-fluorouracil] | below zero |  |  |  |  |  |  |  |  |  |  |  |  |  |  |  |  |  |  | 
COc1ccc2nc([S@@+]([O-])Cc3ncc(C)c(OC)c3C)[nH]c2c1 [esomeprazole] |  | ≤ 48 |  |  |  |  |  |  |  |  |  |  |  |  |  |  |  |  |  | 
CCCCCOC(=O)Nc1nc(=O)n([C@@H]2O[C@H](C)[C@@H](O)[C@H]2O)cc1F [mCAP, capecitabine] | below zero |  | 74 | 83 | 1.89 | 6.0 (95%CI 4.0–7.9) months | 3.0 | 12 | 31 | 57 | 14 | 9 | 3 | 11 | 6 | 6 | 1 | 0 | 29 | no severe adverse event

Reference: publication PMC7690608, “Combination Therapy of High-Dose Rabeprazole Plus Metronomic Capecitabine in Advanced Gastro-Intestinal Cancer: A Randomized Phase II Trial” (Cancers, 2020)
